Square brackets hold non-standard residues; d marks the D form. Peptide text beside a SMILES is read from it. * marks the point of attachment. ξ: configuration not given here. ξF = NC(Cc1ccccc1)C(=O)O; Cbz = O=C(OCc1ccccc1)*
Legend:
[1] = target: T1, Calpain-1 catalytic subunit (Homo sapiens, UniProt P07384); assay: Inhibitory concentration against human plasma mu-calpain; type: cell-free
T1 sequence (P07384 whole entry): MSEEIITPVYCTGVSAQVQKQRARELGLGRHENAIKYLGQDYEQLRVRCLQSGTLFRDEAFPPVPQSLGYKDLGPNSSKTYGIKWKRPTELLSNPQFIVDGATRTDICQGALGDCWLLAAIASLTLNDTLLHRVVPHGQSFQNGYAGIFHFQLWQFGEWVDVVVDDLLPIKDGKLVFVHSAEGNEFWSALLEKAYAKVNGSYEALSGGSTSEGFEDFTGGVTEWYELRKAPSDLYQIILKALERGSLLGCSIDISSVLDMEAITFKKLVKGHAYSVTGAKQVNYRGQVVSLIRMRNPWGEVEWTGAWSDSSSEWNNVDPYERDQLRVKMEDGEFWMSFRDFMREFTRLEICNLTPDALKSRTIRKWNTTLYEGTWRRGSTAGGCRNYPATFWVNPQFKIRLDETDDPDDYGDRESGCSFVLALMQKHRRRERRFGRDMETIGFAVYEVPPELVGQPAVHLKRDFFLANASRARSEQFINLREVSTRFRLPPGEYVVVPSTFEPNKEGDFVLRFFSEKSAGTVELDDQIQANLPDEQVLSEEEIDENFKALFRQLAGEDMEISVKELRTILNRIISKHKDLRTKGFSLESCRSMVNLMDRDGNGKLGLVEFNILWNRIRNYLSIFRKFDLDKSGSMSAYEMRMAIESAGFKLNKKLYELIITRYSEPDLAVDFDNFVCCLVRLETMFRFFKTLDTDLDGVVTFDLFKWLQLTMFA

Cathepsin B (Bos taurus) [2] = target: Cathepsin B (Bos taurus) (UniProt P07688); assay: Percent inhibition of bovine cathepsin B at 2 uM
Cathepsin B (Bos taurus) [3] = target: Cathepsin B (Bos taurus) (UniProt P07688); assay: Percent inhibition of bovine cathepsin B at 20 uM
Cathepsin B (Bos taurus) [4] = target: Cathepsin B (Bos taurus) (UniProt P07688); assay: Percent inhibition of bovine cathepsin B at 0.2 uM
[5] = target: Procathepsin L (Homo sapiens) (UniProt P07711); assay: Percent inhibition of human liver cathepsin L at 2 uM
Chain of Procathepsin L (Homo sapiens) (P07711 114-333 limits assumed): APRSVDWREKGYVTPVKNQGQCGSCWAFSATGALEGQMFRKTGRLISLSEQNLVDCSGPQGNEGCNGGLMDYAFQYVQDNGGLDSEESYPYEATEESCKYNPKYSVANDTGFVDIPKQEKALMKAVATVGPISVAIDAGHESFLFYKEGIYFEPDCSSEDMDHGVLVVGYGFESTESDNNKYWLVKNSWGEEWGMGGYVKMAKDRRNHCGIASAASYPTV

[6] = target: Procathepsin L (Homo sapiens) (UniProt P07711); assay: Percent inhibition of human liver cathepsin L at 20 uM
[7] = target: Procathepsin L (Homo sapiens) (UniProt P07711); assay: Percent inhibition of human liver cathepsin L at 0.2 uM

Structure (SMILES) | IC50 [1] | inhibition (Cathepsin B (Bos taurus) [2]) | inhibition (Cathepsin B (Bos taurus) [3]) | inhibition (Cathepsin B (Bos taurus) [4]) | inhibition [5] | inhibition [6] | inhibition [7]
Cc1c(C(=O)N[C@@H](Cc2ccccc2)C(=O)C(=O)NC(C)C)oc2cc3c(cc2c1=O)OCCO3 | > 20 µM | 0% | 42.2% | 0% | 24.6% | 74.9% | 1.7%
Cc1c(C(=O)N[C@@H](Cc2ccccc2)C(=O)C(=O)NCCN2CCOCC2)oc2ccccc2c1=O | 8.17 µM | 0% | 23.9% | 0% | 9.6% | 69.6% | 0%
Cc1c(C(=O)N[C@@H](Cc2ccccc2)C(=O)C(=O)NCCc2ccccc2)oc2cc3c(cc2c1=O)OCCO3 | 4.53 µM | 35.3% | 41.4% | 0% | 66.8% | 95.7% | 7.4%
Cc1c(C(=O)N[C@@H](Cc2ccccc2)C(=O)C(=O)NCCN2CCOCC2)oc2cc3c(cc2c1=O)OCCO3 | > 20 µM | 0% | 20.2% | 0% | 26.5% | 92% | 0%
CCc1c(C(=O)N[C@@H](Cc2ccccc2)C(=O)C(N)=O)oc2ccccc2c1=O | 0.45 µM | 61.2% | 91.5% | 16.9% | 89.2% | 96.6% | 31.9%
NC(=O)C(=O)[C@H](Cc1ccccc1)NC(=O)c1cc(=O)c2ccccc2o1 | 8.73 µM | 55.4% | 79.9% | 21.5% | 87.7% | 99.1% | 54.2%

Next, values leading:

IC50 [1] | inhibition (Cathepsin B (Bos taurus) [2]) | inhibition (Cathepsin B (Bos taurus) [3]) | inhibition (Cathepsin B (Bos taurus) [4]) | inhibition [5] | inhibition [6] | inhibition [7] | Structure (SMILES)
5.69 µM | 0% | 42.6% | 0% | 17.5% | 71.2% | 2.1% | Cc1c(C(=O)N[C@@H](Cc2ccccc2)C(=O)C(=O)NC(C)C)oc2ccccc2c1=O
2.48 µM | 18.6% | 58.2% | 0% | 83.8% | 95.8% | 12.7% | Cc1c(C(=O)N[C@@H](Cc2ccccc2)C(=O)C(=O)NCc2ccccc2)oc2cc3c(cc2c1=O)OCCO3
– | 96.6% | 100% | 96% | 100% | 100% | 100% | CC(C)[C@H](NC(=O)OCc1ccccc1)C(=O)NC(C=O)Cc1ccccc1 (stereo partly drawn) (Cbz-Val-[ξF]-aldehyde)
0.24 µM | 63.2% | 91.5% | 14.4% | 81.5% | 98.1% | 22.4% | Cc1c(C(=O)N[C@@H](Cc2ccccc2)C(=O)C(N)=O)oc2ccccc2c1=O
0.53 µM | 49% | 82.1% | 0% | 78.9% | 98.3% | 10.1% | Cc1c(C(=O)N[C@@H](Cc2ccccc2)C(=O)C(=O)NCCc2ccccc2)oc2ccccc2c1=O
0.81 µM | 60.8% | 92.2% | 26.3% | 86.3% | 96.6% | 32.5% | Cc1c(C(=O)N[C@@H](Cc2ccccc2)C(=O)C(N)=O)oc2cc3c(cc2c1=O)OCCO3
0.72 µM | 21.3% | 67.9% | 0% | 65.3% | 95.6% | 8.1% | Cc1c(C(=O)N[C@@H](Cc2ccccc2)C(=O)C(=O)NCc2ccccc2)oc2ccccc2c1=O
